# From publication PMC3351969 (European Journal of Medical Research, 2009)
# Assays:
# [1] = test system: cytochrome p450 3A4 (CYP3A4); assay: monoethylglycinexylidide; format: in vivo, human
# [2] = indocyanine green clearance; format: in vivo, human; conditions: HIV-patients, before and 6 months after initiation of HAART
"MEGX test ([1]; HIV-patients treated with various ART combinations, p = 0.23 vs healthy controls) [µg/L]",MEGX test ([1]; healthy controls without medication) [µg/L],Structure (SMILES),indocyanine green clearance in relation to anti-retroviral regimens [2]
49.9 ± 25.48,66.29 ± 38.55,"CCNCC(=O)Nc1c(C)cccc1C [MEGX, monoethylglycinexylidide]",–
–,–,CC1(C)C(/C=C/C=C/C=C/C=C2\N(CCCCS(=O)(=O)O)c3ccc4ccccc4c3C2(C)C)=[N+](CCCCS(=O)(=O)[O-])c2ccc3ccccc3c21 [indocyanine green],no correlation could be found
